This is an account of results in publication PMC8704606, “The Artemiside-Artemisox-Artemisone-M1 Tetrad: Efficacies against Blood Stage P. falciparum Parasites, DMPK Properties, and the Case for Artemiside” (Pharmaceutics, 2021).

SMILES strings stand for the structures. Where two headings read alike, the source gives them in different places.

Details of series [1]: method as in PMID 34097488. The following applies: cited from earlier work.
The subject of series [2] is fetal rat brain stem cells. The conditions noted are these: ref S4 (24), cited from earlier work; for Viability NOEC: neuron-specific enolase activity, 7 days exposure.
In a further series the test system is W2 (CQ resistant). More on the design: method as in ref S2. The conditions noted are these: [3H]-hypoxanthine assay; ref S2; read-out: Antimalarial activities IC50 W2; cited from earlier work.
Another series concerns 7G8 (CQ resistant). More on the design: method as in ref S2. The conditions noted are these: [3H]-hypoxanthine assay; ref S2; read-out: Antimalarial activities IC50 7G8; cited from earlier work.
In series [3] the test system is asexual blood stages of Pf NF54 (drug sensitive). Nature of the series: SYBR Green I proliferation assay, asexual blood stages, Pf NF54. The series is classed as cell-based, Plasmodium falciparum. As for the experimental part:
(§1) Dose response curves are in Figures S1a–c and S2a–c in the Supplementary Material 1. Table 1 also includes the historical values for artemiside and artemisone obtained using the same assay.
(§2) All other assay conditions are as previously described. Compound working solutions were prepared from a 10 mM stock solution in 100% (vol/vol) dimethyl sulfoxide (DMSO, Sigma-Aldrich) in supplemented RPMI 1640 medium containing AlbuMAX II with a final DMSO concentration of 0.1% (vol/vol), previously determined to be nontoxic to blood stage asexual parasites and gametocytes. The dose-responses of the amino-artemisinins were assayed using a 2-fold serial drug dilution on in vitro 95% ring-stage parasites at 37 °C under 90% N2, 5% CO2, and 5% O2 atmospheric conditions, detecting SYBR green I fluorescence as the proliferative marker following a 96 h drug treatment (1% parasitemia and 1% hematocrit) using a GloMaxR-Multi+ Detection System (Promega). No drug washout steps were performed during drug incubation periods prior to the assays. Activity against the Pf drug-sensitive NF54 strain and the drug-resistant K1 (resistant to CQ, quinine, pyrimethamine, and cycloguanil) and W2 (resistant to CQ, quinine, pyrimethamine, and cycloguanil) strains was evaluated. Data analysis was performed using GraphPad Prism (version 6), intra-assay variability was monitored with Z-factors, and acceptable interassay reproducibility was determined from the percent coefficient of variation (CV).

In series [4] the test system is asexual blood stages of Pf K1 (drug resistant). Nature of the series: SYBR Green I proliferation assay, asexual blood stages, Pf K1. The series is classed as cell-based, Plasmodium falciparum. The method, then:
as §1, §2

Series [5] has as its system early-stage (EG) Pf NF54 gametocytes. Nature of the series: Luciferase assay, early-stage gametocytes. The series is classed as cell-based, Plasmodium falciparum. The following applies: early-stage gametocytes >95% stages II-III, 48 h incubation, ± SEM. The method, then:
For screening artemisox and M1 against early- (EG) and late-stage (LG) gametocytes, the luciferase assay with transgenic NF54-pfs16-GFP-Luc and NF54-Mal8p1.16-GFP-Luc parasite lines was used. With this assay, stage-specificity of gametocytocidal action was established (Table 2). Dose-response curves are in Figures S1d,e and S2d in the Supplementary Material 1. […] As was observed previously for artemisone and artemiside, dose responses for artemisox and M1 could not be obtained at 48 h against late-stage gametocytes.
The same reference compounds with the exception of CQ were used for the early- and late-stage gametocyte assays. Gametocytocidal activity was determined using the transgenic NF54-pfs16-GFP-Luc and NF54-Mal8p1.16-GFP-Luc reporter lines. Compounds were initially screened for activity at a fixed drug concentration of 1 µM, with dose responses subsequently determined using 2-fold serial drug dilutions for 48 h against early-stage gametocytes (day 5 post-induction population, ≥95% stages II–III) and 10-fold serial drug dilutions for 48 h or 72 h against late-stage gametocytes (day 10 post-induction population, ≥90% late-stage [stages IV–V]) (2 to 3% gametocytemia, 2% hematocrit) at 37 °C under 90% N2, 5% CO2, and 5% O2 [6]. No drug washout steps were performed during the drug incubation periods prior to the assays. In all cases, an interference assay was run in parallel to eliminate the possibility of false positives arising through compound interference with the luciferase readout.

Series [6] concerns asexual blood stages of Pf W2 (drug resistant). Nature of the series: SYBR Green I proliferation assay, asexual blood stages, Pf W2. It is filed as cell-based, Plasmodium falciparum. As for the experimental part:
as §1, §2

Where [7] appears, read: ATP levels 1 day after initial administration.

On to `C[C@H]1[C@H](N2CCSCC2)O[C@@H]2O[C@@]3(C)CC[C@H]4[C@H](C)CC[C@@H]1[C@@]24OO3` [Artemiside 5, Artemiside], for which the “F% (oral bioavailability)” value in series [1] is 1%. Further, in series [2] (setting [7]), the “ATP IC50” value is 8.5 µg/mL. In addition, the “ATP NOEC” value in series [2] (setting [7]) is reported as 1.0 µg/mL; in series [2] (ATP levels 1 day after initial administration, listed as artemiside), 1 µg/mL. Moreover, the entries for the “Viability NOEC” value in series [2] and in series [2] (listed as artemiside) were 1.0 µg/mL and 1 µg/mL, respectively.

One may read the IC50 as the concentration that gives 50% inhibition. For `C[C@H]1[C@H](N2CCS(=O)(=O)CC2)O[C@@H]2O[C@@]3(C)CC[C@H]4[C@H](C)CC[C@@H]1[C@@]24OO3` [Artemisone 7, Artemisone], the IC50 with W2 (CQ resistant) was 1.3 ± 0.5 nM; in the series on 7G8 (CQ resistant) it was 0.8 ± 0.1 nM.

As for `C[C@H]1[C@H](N2CC[S+]([O-])CC2)O[C@@H]2O[C@@]3(C)CC[C@H]4[C@H](C)CC[C@@H]1[C@@]24OO3` [Artemisox 6, Artemisox], the 50% inhibitory concentration (IC50) in series [3] (Plasmodium falciparum, NF54, 96 h, asexual blood stage Pf NF54, CQ sensitive, SYBR Green I, 96 h, ± SEM, read-out: IC50 NF54) was 1.95 ± 0.25 nM; in series [3] (Plasmodium falciparum, NF54, summary over NF54, K1 and W2 strains, read-out: IC50 against asexual Pf blood stage parasites), roughly 2 nM; in series [3] (summary over NF54, K1 and W2 strains, read-out: IC50 against asexual Pf blood stage parasites) it was 1.5 to 2.6 nM; in series [4] (Plasmodium falciparum, asexual blood stage Pf K1, multidrug resistant, SYBR Green I, 96 h, ± SEM), 1.5 ± 0.5 nM; in series [5] (Plasmodium falciparum, NF54, 48 h) it was 18.9 nM; in series [5] it was 18.9 ± 0.98 nM. The IC50 in series [6] (Plasmodium falciparum, asexual blood stage Pf W2, multidrug resistant, SYBR Green I, 96 h, ± SEM) was determined as 1.5 ± 0.4 nM. Moreover, the “RI (resistance index) = IC50 K1/IC50 NF54” value in series [4] is 0.8. The “RI ratios” value in series [4] (multidrug resistant K1 and W2 vs NF54) is less than 1. Also, the “RI = IC50 W2/IC50 NF54” value in series [6] is 0.7.
